In patent US5202324A, “Imidazopyridazines” (Takeda Chemical Industries, Ltd., priority 1989, dated 1993):

Test system: bronchoconstriction induced by PAF
Assay: Effect on bronchoconstriction induced by platelet activating factor (PAF) in guinea pigs (Konzett-Rossler method)
Assay type: in vivo, guinea pig (male Hartley)
Conditions: Cavia porcellus, po, drug 30 mg/kg orally in 5% gum arabic solution 1 hour before PAF (1 μg/kg i.v.), recorded for 15 minutes
Procedure: Effect on Bronchoconstriction Induced by Platelet Activating Factor (PAF) in Guinea Pigs
Male Hartley guinea pigs (body weight 500 g) were used. The bronchoconstriction reaction in the guinea pig which has intravenously received PAF (1 μg/Kg) was measured by the Konzett-Rossler method. The trachea of the guinea pig with its back fixed was incised under anesthesia condition with urethane (intraperitoneal injection, 1.5 g/kg) and connected with an artificial respirator via a cannula. The branch of the tracheal cannula was connected with a transducer (7020 type, Ugobasile). Air was sent to the trachea at the volume of 3-7 ml/stroke, at the rate of 70 strokes/min. at load pressure of 10 cm H2 O to lung and overflowed air volume was recorded with Rectegraph (Recte-Hori-8s, Sanei Sokuki) via the transducer. After the guinea pig was treated with galamine (1 mg/kg, i.v.), PAF (1 μg/kg) dissolved in a physiological saline solution was administered to the guinea pig via a jugular venous cannula and the bronchoconstriction reaction induced thereby was recorded for 15 minutes. The drug (30 mg/kg) suspended in a 5% gum arabic solution was administered orally 1 hour before the injection of PAF.

## O=S(=O)(CCCSc1ccc2nccn2n1)NC1CC1 [Example 6]
  inhibition in vivo at 30 mg/kg: 47%

## CNS(=O)(=O)CCCSc1ccc2nccn2n1 [Example 3]
  inhibition in vivo at 30 mg/kg: 41%
